Molecular target: T1, rat NaP2b (SLC34A2) (Rattus norvegicus, UniProt Q9JJ09)
T1 construct: host or cells: HEK293
T1 sequence (Q9JJ09 1-695): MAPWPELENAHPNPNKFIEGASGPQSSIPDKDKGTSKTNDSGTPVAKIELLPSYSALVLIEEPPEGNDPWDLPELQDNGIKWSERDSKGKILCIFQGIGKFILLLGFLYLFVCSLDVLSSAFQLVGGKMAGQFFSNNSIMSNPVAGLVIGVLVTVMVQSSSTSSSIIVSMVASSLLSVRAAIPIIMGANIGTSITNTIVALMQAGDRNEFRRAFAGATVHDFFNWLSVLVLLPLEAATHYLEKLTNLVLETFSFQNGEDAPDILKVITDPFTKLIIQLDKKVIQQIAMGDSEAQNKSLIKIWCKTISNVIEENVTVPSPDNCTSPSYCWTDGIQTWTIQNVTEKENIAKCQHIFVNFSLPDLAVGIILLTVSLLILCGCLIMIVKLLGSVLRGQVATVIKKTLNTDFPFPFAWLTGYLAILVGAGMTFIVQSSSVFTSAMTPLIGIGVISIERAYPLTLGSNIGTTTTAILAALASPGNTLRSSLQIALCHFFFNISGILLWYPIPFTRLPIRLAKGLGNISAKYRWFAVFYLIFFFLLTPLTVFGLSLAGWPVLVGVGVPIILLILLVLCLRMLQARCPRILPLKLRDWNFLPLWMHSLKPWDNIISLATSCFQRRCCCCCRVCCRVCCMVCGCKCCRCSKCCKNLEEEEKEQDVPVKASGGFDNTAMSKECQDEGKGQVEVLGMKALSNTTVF
Test: Inhibition of NaP2b-mediated Pi (33P) uptake in transfected HEK293 cells, rat NaP2b
Assay type: cell-based
Settings: 33P Pi uptake, 0.1 mM phosphate, value given as pIC50 range
How it was run: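 The cells transiently expressed NaP2b after Lipofectamine transfection. Each compound was run in duplicate over twelve concentrations, 0.1 nM–30 uM.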

Row | IC50 [µM] | SMILES
1 | 1 to 7.94 | O=C(NCc1cccc(C(F)(F)F)c1)c1ccnc(-c2cc(N3CCCCC3)ccc2NC(=O)c2cccc(Cn3ccc4c(C(=O)NCCOCCOCCO)cccc43)c2)c1 [Example 180, N-(2-(2-(2-hydroxyethoxy)ethoxy)ethyl)-1-(3-(4-(piperidin-1-yl)-2-(4-(3-(trifluoromethyl)benzylcarbamoyl)pyridin-2-yl)phenylcarbamoyl)benzyl)-1H-indole-4-carboxamide]
2 | 1 to 7.94 | O=C(O)c1cccc(Cn2ccnc2-c2cccc(C(=O)Nc3ccc(N4CCCCC4)cc3-c3cc(C(=O)NCc4cccc(C(F)(F)F)c4)ccn3)c2)c1 [Example 184, 3-((2-(3-(4-(piperidin-1-yl)-2-(4-(3-(trifluoromethyl)benzylcarbamoyl)pyridin-2-yl)phenylcarbamoyl)phenyl)-1H-imidazol-1-yl)methyl)benzoic acid]
3 | 1 to 7.94 | O=C(O)c1cccc(CSc2cccc(C(=O)Nc3ccc(N4CCCCC4)cc3-c3cc(C(=O)NCc4cccc(C(F)(F)F)c4)ccn3)c2)c1 [Example 186, 3-((3-(4-(piperidin-1-yl)-2-(4-(3-(trifluoromethyl)benzylcarbamoyl)pyridin-2-yl)phenylcarbamoyl)phenylthio)methyl)benzoic acid]
4 | 1 to 7.94 | CCN(CC)c1ccc(NC(=O)c2cccc(C(=O)N3CCC[C@H](C(=O)NCCOC)C3)c2)c(-c2cc(C(=O)NCc3cccc(C(F)(F)F)c3)ccn2)c1 [Example 189, (S)-2-(5-(diethylamino)-2-(3-(3-((2-methoxyethyl)carbamoyl)piperidine-1-carbonyl)benzamido)phenyl)-N-(3-(trifluoromethyl)benzyl)isonicotinamide]
5 | 1 to 7.94 | CN(CCN1CCC[C@H]1C(=O)N(C)CCOCCOCCOCCC(=O)OC(C)(C)C)C(=O)c1cccc(C(=O)Nc2ccc(N3CCCCC3)cc2-c2cc(C(=O)N[C@H]3CCCc4ccccc43)ccn2)c1 [Example 190, tert-Butyl 2-methyl-1-((S)-1-(2-(N-methyl-3-((4-(piperidin-1-yl)-2-(4-(((S)-1,2,3,4-tetrahydronaphthalen-1-yl)carbamoyl)pyridin-2-yl)phenyl)carbamoyl)benzamido)ethyl)pyrrolidin-2-yl)-1-oxo-5,8,11-trioxa-2-azatetradecan-14-oate]
6 | < 1 | CCN(CC)c1ccc(NC(=O)c2cccc(C(=O)N(C)CCO)c2)c(-c2cc(C(=O)N[C@H]3CCCc4ccccc43)ccn2)c1 [Example 194, (S)—N^1-(4-(diethylamino)-2-(4-((1,2,3,4-tetrahydronaphthalen-1-yl)carbamoyl)pyridin-2-yl)phenyl)-N^3-(2-hydroxyethyl)-N^3-methylisophthalamide]
7 | 1 to 7.94 | CCN(CC)c1ccc(NC(=O)c2cccc(C(=O)N(C)CCN3CCCN(C(=O)CCOCCOCCOCCOCCOCCOCCOCCOC)CC3)c2)c(-c2cc(C(=O)N[C@H]3CCCc4ccccc43)ccn2)c1 [Example 197, (S)—N^1-(2-(4-(2,5,8,11,14,17,20,23-octaoxahexacosan-26-oyl)-1,4-diazepan-1-yl)ethyl)-N^3-(4-(diethylamino)-2-(4-((1,2,3,4-tetrahydronaphthalen-1-yl)carbamoyl)pyridin-2-yl)phenyl)-N^1-methylisophthalamide]
8 | 10 to 31.6 | COCCOCCOCCOCCOCCOCCOCCN(C)C(=O)[C@@H]1CCCN1CCN(C)C(=O)c1cccc(C(=O)Nc2ccc(N3CCCCC3)cc2-c2cc(C(=O)N[C@H]3CCCc4ccccc43)ccn2)c1 [Example 198, N^1-(2-((S)-2-(2,5,8,11,14,17,20-heptaoxadocosan-22-yl(methyl)carbamoyl)pyrrolidin-1-yl)ethyl)-N^1-methyl-N^3-(4-(piperidin-1-yl)-2-(4-(((S)-1,2,3,4-tetrahydronaphthalen-1-yl)carbamoyl)pyridin-2-yl)phenyl)isophthalamide]
9 | 10 to 31.6 | COCCNC(=O)N1CCN(CCN(C)C(=O)c2cccc(C(=O)Nc3ccc(N4CCCCC4)cc3-c3cc(C(=O)NCc4cccc(C(F)(F)F)c4)ccn3)c2)CC1 [Example 207, N1-(2-(4-((2-methoxyethyl)carbamoyl)piperazin-1-yl)ethyl)-N3-(2-(4-((3-(trifluoromethyl)benzyl)carbamoyl)pyridin-2-yl)-4-(piperidin-1-yl)phenyl)-N1-methylisophthalamide]
10 | 10 to 31.6 | COCCNC(=O)N1CCN(CCN(C)Cc2cccc(C(=O)Nc3ccc(N4CCCCC4)cc3-c3cc(C(=O)NCc4cccc(C(F)(F)F)c4)ccn3)c2)CC1 [Example 208, N-(2-methoxyethyl)-4-(2-(methyl(3-(4-(piperidin-1-yl)-2-(4-(3-(trifluoromethyl)benzylcarbamoyl)pyridin-2-yl)phenylcarbamoyl)benzyl)amino)ethyl)piperazine-1-carboxamide]
11 | < 1 | COCCN(CCOC)CCN(C)C(=O)c1cccc(C(=O)Nc2ccc(N3CCCCC3)cc2-c2cc(C(=O)N[C@H]3CCCc4ccccc43)ccn2)c1 [Example 217, (S)—N1-(2-(bis(2-methoxyethyl)amino)ethyl)-N1-methyl-N3-(4-(piperidin-1-yl)-2-(4-(1,2,3,4-tetrahydronaphthalen-1-ylcarbamoyl)pyridin-2-yl)phenyl)isophthalamide]
12 | 10 to 31.6 | COCCN(CCOCCOCCOCCC(=O)O)CCN(C)C(=O)c1cccc(C(=O)Nc2ccc(N3CCCCC3)cc2-c2cc(C(=O)N[C@H]3CCCc4ccccc43)ccn2)c1 [Example 221, 5-{2-[N-methyl-1-(3-{[4-(piperidin-1-yl)-2-(4-{[(1S)-1,2,3,4-tetrahydronaphthalen-1-yl]carbamoyl}pyridin-2-yl)phenyl]carbamoyl}phenyl)formamido]ethyl}-2,8,11,14-tetraoxa-5-azaheptadecan-17-oic acid]
13 | 1 to 7.94 | CCN(CC)c1ccc(NC(=O)c2cccc(C(=O)N(C)CCN(C)CCOCCOCCOCCNC(N)=O)c2)c(-c2cc(C(=O)N[C@H]3CCCc4ccccc43)ccn2)c1 [Example 224, (S)—N1-(1-amino-14-methyl-1-oxo-5,8,11-trioxa-2,14-diazahexadecan-16-yl)-N3-(4-(diethylamino)-2-(4-(1,2,3,4-tetrahydronaphthalen-1-ylcarbamoyl)pyridin-2-yl)phenyl)-N1-methylisophthalamide]
14 | 10 to 31.6 | CCN(CC)c1ccc(NC(=O)c2cccc(C(=O)N(C)CCN(C)CCOCCOCCOCCNC(=O)N(CCO)CCO)c2)c(-c2cc(C(=O)N[C@H]3CCCc4ccccc43)ccn2)c1 [Example 225, (S)—N1-(4-(diethylamino)-2-(4-(1,2,3,4-tetrahydronaphthalen-1-ylcarbamoyl)pyridin-2-yl)phenyl)-N3-(1-hydroxy-3-(2-hydroxyethyl)-17-methyl-4-oxo-8,11,14-trioxa-3,5,17-triazanonadecan-19-yl)-N3-methylisophthalamide]
15 | 1 to 7.94 | COCCOCCOCCOCCOCCOCCOCCOCC(=O)N1CCN(CCN(C)C(=O)c2cccc(C(=O)Nc3ccc(N4CCCCC4)cc3-c3cc(C(=O)N[C@H]4CCCc5ccccc54)ccn3)c2)CC1 [Example 228, (S)—N1-(2-(4-2,5,8,11,14,17,20,23-octaoxapentacosanepiperazin-1-yl)ethyl)-N1-methyl-N3-(4-(piperidin-1-yl)-2-(4-(1,2,3,4-tetrahydronaphthalen-1-ylcarbamoyl)pyridin-2-yl)phenyl)isophthalamide]
16 | 1 to 7.94 | CN(CCN1C[C@H](O)C[C@H]1C(=O)N(C)CCOCCOCCOCCC(=O)OC(C)(C)C)C(=O)c1cccc(C(=O)Nc2ccc(N3CCCCC3)cc2-c2cc(C(=O)N[C@H]3CCCc4ccccc43)ccn2)c1 [Example 241]

Source: patent US20140023611A1 (priority 2010, published 2014)
